Experimental data published in patent publication US5824698A, “Antibacterial dibenzimidazole derivatives” (priority 1994, dated 1998).
≈ marks a conversion by molar mass, not a printed value. Where a name gives a salt, the structure may show the parent alone. Read-outs that look alike come from different tables or passages of the source.

Tests used:
Format in all cases: cell-based
E. coli 25922 = experiment: Antibacterial activity in vitro (MIC, standard agar method); conditions: Escherichia coli; E. coli 25922; DST agar, 35° C., 20 hours; read-out: Minimum inhibitory concentration (MIC)
Description: (§1) The minimum inhibitory concentration (MIC) of the substances investigated against gram-positive and gram-negative strains was determined using standard agar methods. The compounds were dissolved in a small amount of dimethyl sulphoxide, diluted with water and incorporated into liquified DST agar at 50° C. The thus-produced agar plates were used immediately thereafter in the test. The test concentrations lay between 128 and 0.06 μg/ml. The bacterial inoculation solutions were prepared from pre-cultures grown overnight, diluted and applied to the agar surface using an inoculation device (Denley A400). The plates were incubated at 35° C. for 20 hours. The MIC was determined as the lowest concentration of substance which prevented a visible growth. A scarcely visible turbidity and the growth of less than 5 colonies were ignored. The determinations of the antibacterial activities (Tab. 1) were carried out not only for the free bases, but also for the hydrochloride salt of each compound. The same values were obtained within experimental error.

E. coli AS-19 = experiment: as above; conditions: Escherichia coli, AS19, DST agar, 35° C., 20 hours, read-out: Minimum inhibitory concentration (MIC)
Description: as §1

Staph. aureus 25923 = experiment: as above; conditions: Staphylococcus aureus, DST agar, 35° C., 20 hours, read-out: Minimum inhibitory concentration (MIC)
Description: as §1

E. coli B = experiment: as above; conditions: Escherichia coli, DST agar, 35° C., 20 hours, read-out: Minimum inhibitory concentration (MIC)
Description: as §1

K. oxytoca 1082E = experiment: as above; conditions: Klebsiella oxytoca, DST agar, 35° C., 20 hours, read-out: Minimum inhibitory concentration (MIC)
Description: as §1

P. aeruginosa 799/61 = experiment: as above; conditions: Pseudomonas aeruginosa, read-out: Minimum inhibitory concentration (MIC)
Description: as §1

E. coli 159 R = experiment: as above; conditions: Escherichia coli, read-out: Minimum inhibitory concentration (MIC)
Description: as §1

Staph. aureus 887 = experiment: as above; conditions: Staphylococcus aureus, DST agar, 35° C., 20 hours, read-out: Minimum inhibitory concentration (MIC)
Description: as §1

E. cloacae P 99 = experiment: as above; conditions: Enterobacter cloacae, P99, 20 h, read-out: Minimum inhibitory concentration (MIC)
Description: as §1

S. aureus 853 = experiment: as above; conditions: Staphylococcus aureus, DST agar, 35° C., 20 hours, read-out: Minimum inhibitory concentration (MIC)
Description: as §1

S. aureus 101 = experiment: as above; conditions: Staphylococcus aureus, DST agar, 35° C., 20 hours, read-out: Minimum inhibitory concentration (MIC)
Description: as §1

B. subtilis ATCC 585369 = experiment: as above; conditions: Bacillus subtilis, ATCC585369, DST agar, 35° C., 20 hours, read-out: Minimum inhibitory concentration (MIC)
Description: as §1

E. coli 1346 = experiment: as above; conditions: Escherichia coli, DST agar, 35° C., 20 hours, read-out: Minimum inhibitory concentration (MIC)
Description: as §1

P. aeroguinosa 3351 = experiment: as above; conditions: read-out: Minimum inhibitory concentration (MIC)
Description: as §1

E. coli DC2 = experiment: as above; conditions: Escherichia coli; E. coli DC2; DST agar, 35° C., 20 hours; read-out: Minimum inhibitory concentration (MIC)
Description: as §1

P. aeroginosa BA = experiment: as above; conditions: DST agar, 35° C., 20 hours, read-out: Minimum inhibitory concentration (MIC)
Description: as §1

Staph. haemolyticus 75 = experiment: as above; conditions: Staphylococcus haemolyticus, DST agar, 35° C., 20 hours, read-out: Minimum inhibitory concentration (MIC)
Description: as §1

E. coli H560 = experiment: as above; conditions: Escherichia coli, read-out: Minimum inhibitory concentration (MIC)
Description: as §1

[1] = test system: E. coli K12 KEA-12 (GyrA); experiment: as above; conditions: Escherichia coli, 20 h, read-out: Minimum inhibitory concentration (MIC)
Description: as §1

E. faecalis 6 = experiment: as above; conditions: read-out: Minimum inhibitory concentration (MIC)
Description: as §1

[2] = test system: Helicobacter pylori PH 81; experiment: Antibacterial activity against Helicobacter pylori in vitro (MIC, agar method); conditions: PH81, H. pylori PH 81, Muller-Hinton agar, 5% sheep blood, incubation 7 days, read-out: Minimum inhibitory concentration (MIC)
Description: as §1
(§2) The antibacterial activities against Helicobacter pylori were carried out analogously to the method described above with the following variations: The compounds were incorporated into Muller-Hinton agar containing 5% sheep blood additive. The test concentrations lay between 10 and 0.1 μg/ml. […]

[3] = test system: Helicobacter pylori K 1585; experiment: as above; conditions: K1585, H. pylori K 1585, Muller-Hinton agar, 5% sheep blood, incubation 4 days, read-out: Minimum inhibitory concentration (MIC)
Description: as §1, §2

S. haemolyticus 91 = experiment: Antibacterial activity in vitro (MIC, standard agar method); conditions: Staphylococcus haemolyticus, DST agar, 35° C., 20 hours, read-out: Minimum inhibitory concentration (MIC)
Description: as §1

S. marcescens = experiment: as above; conditions: Serratia marcescens, read-out: Minimum inhibitory concentration (MIC)
Description: as §1

E. coli 1527 E = experiment: as above; conditions: Escherichia coli, read-out: Minimum inhibitory concentration (MIC)
Description: as §1

[4] = Enterococcus faecalis, E. faecalis 6, DST agar, 35° C., 20 hours
[5] = E. coli 159 R, DST agar, 35° C., 20 hours

CCOc1ccc(-c2nc3ccc(-c4ccc5nc(-c6ccc(O)cc6)[nH]c5c4)cc3[nH]2)cc1 [Example 11, 4-[2'-(4-Ethoxy-phenyl)-6,6'-dibenzimidazol-2-yl]-phenol]
MIC (E. coli 25922): > 128 µg/mL
MIC (E. coli AS-19): 0.5 µg/mL (≈ 1.12 µM)
MIC (Staph. aureus 25923): 0.25 µg/mL (≈ 0.56 µM)
MIC (E. coli B): 0.5 µg/mL (≈ 1.12 µM)
MIC (K. oxytoca 1082E): > 128 µg/mL
MIC (P. aeruginosa 799/61; 799/61, 20 h): > 128 µg/mL
MIC (E. coli 159 R; 159R, 20 h): > 128 µg/mL
MIC (Staph. aureus 887): 0.25 µg/mL (≈ 0.56 µM)
MIC (E. cloacae P 99): > 128 µg/mL
MIC (S. aureus 853): 0.25 µg/mL (≈ 0.56 µM)
MIC (S. aureus 101): 0.5 µg/mL (≈ 1.12 µM)
MIC (B. subtilis ATCC 585369): 0.25 µg/mL (≈ 0.56 µM)
MIC (E. coli 1346): 0.25 µg/mL (≈ 0.56 µM)
MIC (P. aeroguinosa 3351; 20 h): > 128 µg/mL
MIC (E. coli DC2): 1 µg/mL (≈ 2.24 µM)
MIC (P. aeroginosa BA): > 128 µg/mL
MIC (Staph. haemolyticus 75): 0.12 µg/mL (≈ 0.269 µM)
MIC (E. coli H560; H560, 20 h): > 128 µg/mL
MIC [1]: > 128 µg/mL
MIC (E. faecalis 6; [4]): 0.5 µg/mL (≈ 1.12 µM)
MIC [2]: < 0.1 µg/mL
MIC [3]: 1 µg/mL (≈ 2.24 µM)

Oc1ccc(-c2nc3ccc(-c4ccc5nc(-c6ccc(O)cc6)[nH]c5c4)cc3[nH]2)cc1 [Example 5, 4-[2'-(4-Hydroxy-phenyl)-6,6'-dibenzimidazol-2-yl)-phenol hydrochloride]
MIC (E. coli 25922): > 128 µg/mL
MIC (E. coli AS-19): 0.25 µg/mL
MIC (S. haemolyticus 91): 0.12 µg/mL
MIC (Staph. aureus 25923): ≤ 0.12 µg/mL
MIC (E. coli B): ≤ 0.12 µg/mL
MIC (K. oxytoca 1082E): > 128 µg/mL
MIC (P. aeruginosa 799/61; 799/61, 20 h): > 128 µg/mL
MIC (E. coli 159 R; [5]): > 4 µg/mL
MIC (Staph. aureus 887): ≤ 0.12 µg/mL
MIC (E. cloacae P 99): > 128 µg/mL
MIC (S. aureus 853): 0.25 µg/mL
MIC (S. aureus 101): > 32 µg/mL
MIC (B. subtilis ATCC 585369): ≤ 0.12 µg/mL
MIC (E. coli 1346): ≤ 0.12 µg/mL
MIC (P. aeroguinosa 3351; 20 h): > 128 µg/mL
MIC (E. coli DC2): ≤ 0.12 µg/mL
MIC (S. marcescens; 20 h): > 128 µg/mL
MIC (P. aeroginosa BA): > 128 µg/mL
MIC (Staph. haemolyticus 75): ≤ 0.06 µg/mL
MIC (E. coli H560; H560, 20 h): > 128 µg/mL
MIC [1]: > 128 µg/mL
MIC (E. coli 1527 E; 1527E, 20 h): > 128 µg/mL
MIC (E. faecalis 6; Enterococcus faecalis, 6, 20 h): ≤ 0.06 µg/mL
MIC [2]: < 0.1 µg/mL
MIC [3]: 1 µg/mL

Oc1ccc(-c2nc3ccc(-c4ccc5nc(-c6ccc(O)c(F)c6)[nH]c5c4)cc3[nH]2)cc1F [Example 1, 2-Fluoro-4-[2'-(3-fluoro-4-hydroxy-phenyl)-6,6'-dibenzimidazol-2-yl]-phenol]
MIC (E. coli AS-19): > 64 µg/mL
MIC (S. haemolyticus 91): 8 µg/mL (≈ 17.6 µM)
MIC (Staph. aureus 25923): 8 µg/mL (≈ 17.6 µM)
MIC (E. coli B): > 64 µg/mL
MIC (P. aeruginosa 799/61; P. aeruginosa 799/61, DST agar, 35° C., 20 hours): > 64 µg/mL
MIC (E. coli 159 R; [5]): 8 µg/mL (≈ 17.6 µM)
MIC (Staph. aureus 887): 16 µg/mL (≈ 35.2 µM)
MIC (E. cloacae P 99): > 64 µg/mL
MIC (S. aureus 853): 16 µg/mL (≈ 35.2 µM)
MIC (S. aureus 101): 8 µg/mL (≈ 17.6 µM)
MIC (E. coli 1346): 32 µg/mL (≈ 70.4 µM)
MIC (P. aeroguinosa 3351; P. aeroguinosa 3351, DST agar, 35° C., 20 hours): > 64 µg/mL
MIC (E. coli DC2): > 64 µg/mL
MIC (S. marcescens; S. marcescens, DST agar, 35° C., 20 hours): > 64 µg/mL
MIC (Staph. haemolyticus 75): 0.25 µg/mL (≈ 0.55 µM)
MIC (E. coli H560; E. coli H560, DST agar, 35° C., 20 hours): 8 µg/mL (≈ 17.6 µM)
MIC [1]: > 64 µg/mL
MIC (E. coli 1527 E; E. coli 1527 E, DST agar, 35° C., 20 hours): > 64 µg/mL
MIC (E. faecalis 6; [4]): 2 µg/mL (≈ 4.4 µM)
